Assay results as given in PubChem BioAssay (NCI).
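Where inhibition never reached the appropriate level, the endpoint shown equals the highest concentration tested. Otherwise, values were interpolated linearly from a five-concentration, 48-hour dose response in 96-well plates. Abbreviation: GI50, concentration required for 50% inhibition of growth. TGI marks complete inhibition of growth.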

What was measured:
Test in all cases: DTP human tumour cell line panel, 48 h
SR leukemia = tested on: SR leukemia
CAKI-1 renal = tested on: CAKI-1 renal
SK-MEL-28 melanoma = tested on: SK-MEL-28 melanoma
SK-MEL-5 melanoma = tested on: SK-MEL-5 melanoma
BT-549 breast = tested on: BT-549 breast
HOP-92 NSCLC = tested on: HOP-92 NSCLC
MOLT-4 leukemia = tested on: MOLT-4 leukemia
OVCAR-5 ovarian = tested on: OVCAR-5 ovarian
NCI-H23 lung = tested on: NCI-H23 lung
NCI-H226 lung = tested on: NCI-H226 lung

| SMILES | GI50 (SR leukemia) | TGI (SR leukemia) | GI50 (CAKI-1 renal) | TGI (CAKI-1 renal) | GI50 (SK-MEL-28 melanoma) | TGI (SK-MEL-28 melanoma) | GI50 (SK-MEL-5 melanoma) | TGI (SK-MEL-5 melanoma) | GI50 (BT-549 breast) | TGI (BT-549 breast) | GI50 (HOP-92 NSCLC) | TGI (HOP-92 NSCLC) | TGI (MOLT-4 leukemia) | GI50 (OVCAR-5 ovarian) | TGI (OVCAR-5 ovarian) | GI50 (NCI-H23 lung) | TGI (NCI-H23 lung) | GI50 (NCI-H226 lung) | TGI (NCI-H226 lung) | GI50 (MOLT-4 leukemia) |
| --- | --- | --- | --- | --- | --- | --- | --- | --- | --- | --- | --- | --- | --- | --- | --- | --- | --- | --- | --- | --- |
| C[C@]12CC[C@@H](OC(=O)N(CCCl)N=O)C[C@@H]1CC[C@@H]1[C@@H]2CC[C@]2(C)C(=O)CC[C@@H]12 | 0.0156 µM | 6.82 µM | 1.67 µM | 20.7 µM | 14.7 µM | 29.6 µM | 3.93 µM | 19.5 µM | 14.2 µM | 33.2 µM | 6.79 µM | 35.9 µM | > 57.7 µM | 27.2 µM | 57.7 µM | 15.3 µM | 67.2 µM | 14.6 µM | 31.4 µM | – |
| C/C(=C(/c1ccc(O)cc1)c1ccc(Cl)cc1)c1ccccc1 | 0.92 µM | 7.98 µM | 0.781 µM | 2.68 µM | 0.685 µM | 2.18 µM | 0.454 µM | 0.849 µM | 0.575 µM | 1.53 µM | 0.448 µM | 1.09 µM | 2.41 µM | 1.17 µM | 2.67 µM | 0.625 µM | 1.84 µM | 2.75 µM | 7.9 µM | 0.678 µM |
| [N-]=[N+]=CC(=O)COC(=O)c1ccccc1 | – | > 100 µM | – | > 100 µM | – | > 100 µM | – | > 100 µM | – | > 100 µM | – | > 100 µM | > 100 µM | – | > 100 µM | – | > 100 µM | – | > 100 µM | – |
| Clc1ccc2ns[s+]c2c1 | – | > 31.6 µM | – | > 100 µM | – | > 100 µM | – | > 96.2 µM | – | > 100 µM | – | > 100 µM | > 100 µM | – | > 100 µM | – | > 46.4 µM | – | > 100 µM | – |
| NC(=S)N/N=C1\CCCC1C(O)(C(F)(F)Cl)C(F)(F)Cl (stereo unspecified) | – | > 10 µM | – | > 10 µM | – | > 10 µM | – | 7.44 µM | – | > 10 µM | – | > 10 µM | > 10 µM | – | > 10 µM | – | > 10 µM | – | > 10 µM | – |
| Cn1cc(C2=C(c3cn(C)c4cc(N)ccc34)C(=O)NC2=O)c2ccccc21 | 0.364 µM | 4.02 µM | 1.39 µM | > 15 µM | 4.71 µM | 18.4 µM | 1.09 µM | 5.76 µM | 4.32 µM | 14.6 µM | 5.86 µM | > 18.9 µM | > 18.7 µM | 8.13 µM | > 21.9 µM | 3.72 µM | 11.8 µM | 3.59 µM | 17.2 µM | 2.26 µM |
| CCCCCCCCCCCCCCCCCCNC(=O)OCC(CNS(=O)(=O)CCC[n+]1cccc2ccccc21)COC (stereo unspecified) | – | > 100 µM | – | 51.3 µM | – | > 35.1 µM | – | 7.03 µM | – | 5.41 µM | – | 4.01 µM | > 100 µM | – | 6.09 µM | – | 5.6 µM | – | 3.84 µM | – |
| C/C(=N\NC(=S)N1CCN(c2ccccn2)CC1)c1nccs1 | 0.236 µM | 4.63 µM | – | 19.9 µM | – | 19.9 µM | – | 6.3 µM | – | 18 µM | 0.017 µM | – | 22.3 µM | 0.0544 µM | 27.4 µM | 0.0643 µM | 13.8 µM | – | 6.66 µM | 0.00504 µM |
| Nc1nc(N)nc(CC(=O)O)n1 | – | > 100 µM | – | > 100 µM | – | > 100 µM | – | > 100 µM | – | > 100 µM | – | > 100 µM | > 100 µM | – | > 100 µM | – | > 100 µM | – | > 100 µM | – |
| CC[C@@]12C=CCN3CC[C@]4(c5cc(NC(=O)COc6cc(OCC(=O)Nc7cc8c(cc7OC)N(C)[C@H]7[C@@](O)(C(=O)OC)[C@H](OC(C)=O)[C@]9(CC)C=CCN%10CC[C@]87[C@@H]%109)cc7oc(-c8ccccc8)cc(=O)c67)c(OC)cc5N(C)[C@@H]4[C@](O)(C(=O)OC)[C@H]1OC(C)=O)[C@H]32 | 2.06 µM | > 100 µM | 4.52 µM | > 100 µM | > 100 µM | > 100 µM | 36.9 µM | > 100 µM | 3.7 µM | > 100 µM | 7.07 µM | 80.4 µM | > 100 µM | 3.76 µM | 48.2 µM | 2.15 µM | 6.58 µM | 4.34 µM | 18 µM | 2.79 µM |
| NNS(=O)(=O)c1cc(C(=O)O)cc(C(=O)O)c1 | – | > 100 µM | – | > 100 µM | – | > 100 µM | – | > 100 µM | – | > 100 µM | – | > 100 µM | > 100 µM | – | > 100 µM | – | > 100 µM | – | > 100 µM | – |
| CC[C@]1(O)C[C@@H]2CN(CCc3c([nH]c4ccccc34)[C@@](C(=O)OC)(c3cc4c(cc3OC)N(C)[C@H]3[C@@](O)(C(N)=O)[C@H](O)[C@]5(CC)[C@@H]6C[C@@H]6CN6CC[C@]43[C@@H]65)C2)C1 | < 0.00333 µM | 10.2 µM | 1.12 µM | > 33.3 µM | 6.47 µM | > 33.3 µM | < 0.00333 µM | 0.0546 µM | < 0.00333 µM | 0.708 µM | < 0.00333 µM | 1.82 µM | > 33.3 µM | 0.0912 µM | > 33.3 µM | < 0.00333 µM | > 33.3 µM | 0.0382 µM | > 23.7 µM | < 0.00333 µM |
| COc1ccc(/C=C\c2cc(OC)c(OC)c(OC)c2)c(NS(=O)(=O)c2ccc(Cl)cc2)c1O | 0.0306 µM | 10.4 µM | 0.0542 µM | 28.7 µM | 0.084 µM | 31.6 µM | 0.0511 µM | 0.332 µM | 0.353 µM | 34.5 µM | 2.36 µM | 23.6 µM | 83.3 µM | 2.86 µM | 33.8 µM | 0.288 µM | 42.4 µM | 24.9 µM | 90.4 µM | 0.315 µM |
| COC(=O)c1ccc2c(c1)C(=O)c1c-2n(CCCN)c(=O)c2cc(OC)c(OC)cc12 | 1.98 µM | 4.39 µM | 18.6 µM | 37.2 µM | 17.9 µM | 35.2 µM | 17.4 µM | 34.3 µM | 17.1 µM | 35.4 µM | 14.2 µM | 32.1 µM | 4.67 µM | 18.8 µM | 33.9 µM | 17.1 µM | 33.5 µM | 16.7 µM | 36.7 µM | 1.83 µM |
| CCN(CC)CCOc1c(OC)c(Br)cc2c(C)c(C(=O)OC)oc12 | 0.542 µM | 1.31 µM | 1.26 µM | 3.5 µM | – | – | 0.818 µM | 1.53 µM | 1.61 µM | 5.62 µM | – | – | 1.23 µM | 3.14 µM | 9.29 µM | 1.12 µM | 2.68 µM | 1.16 µM | 3.39 µM | 0.374 µM |
| CCOC(=O)c1c2c(n(Cc3ccccc3)c1C)-c1nc(Cc3ccccc3)[nH]c1C(=O)C2=O | 1.65 µM | 4.02 µM | 0.673 µM | 2.18 µM | 2 µM | 3.42 µM | 1.69 µM | 3.06 µM | 1.43 µM | 2.99 µM | 1.17 µM | 2.45 µM | 5.41 µM | 1.98 µM | 3.62 µM | 1.82 µM | 3.59 µM | 1.67 µM | 4.39 µM | 2.13 µM |
| C[C@]12CC[C@H]3[C@@H](CC[C@]4(O)C[C@@H](O)CC[C@]34CO)[C@@]1(O)CC[C@@H]2C1=CC(=O)OC1 | – | > 100 µM | – | – | – | 22.5 µM | – | 5.08 µM | – | 3.68 µM | – | 18.9 µM | 0.726 µM | – | 10.5 µM | – | 4.98 µM | – | 13.8 µM | – |
| COC(=O)c1ccc(CN2C(=O)C(Cl)=C(Nc3ccc(OC)c(Cl)c3)C2=O)cc1 | 4.08 µM | 36.9 µM | 17.3 µM | > 50 µM | 8.48 µM | 30.7 µM | 31.6 µM | > 50 µM | 11.3 µM | 26.7 µM | > 50 µM | > 50 µM | 49 µM | 17.8 µM | 44.1 µM | 14.4 µM | 39.3 µM | – | – | 5.83 µM |
| C/C=C(/C)c1cnc(CC(C)C)c(=O)[nH]1 | – | > 100 µM | – | > 100 µM | – | > 100 µM | – | > 100 µM | – | > 100 µM | – | > 100 µM | > 100 µM | – | > 100 µM | – | > 100 µM | – | – | – |
| COC(=O)C(=O)C(C(=O)C(N)=O)c1nc2ccc(C(=O)c3ccccc3)cc2[nH]c1=O (stereo unspecified) | – | > 100 µM | – | > 100 µM | – | > 100 µM | – | > 100 µM | – | > 100 µM | – | > 100 µM | > 100 µM | – | > 100 µM | – | – | – | > 100 µM | – |
| COC(=O)[C@@]1(C)CCC[C@]2(C(=O)O)C3Cc4occc4[C@H](C)[C@@H]3CCC21 (stereo partly specified) | – | > 100 µM | – | – | – | > 100 µM | – | > 100 µM | – | > 100 µM | – | 81 µM | > 100 µM | – | > 100 µM | – | > 100 µM | – | > 100 µM | – |
| CCCCN(CCCC)CCc1c(C)cc(C)c(CCN(CCCC)CCCC)c1O | 2.16 µM | 12.7 µM | 2.17 µM | 7.35 µM | 3.97 µM | > 100 µM | 1.97 µM | 4.1 µM | 2.78 µM | 6.87 µM | – | – | 10.8 µM | 3.26 µM | > 100 µM | 2.76 µM | 23.7 µM | 3.16 µM | 37.8 µM | 2.73 µM |
